Reference: the NIST ThermoML archive (doi:10.1021/acs.jced.8b00358)
± gives the expanded uncertainty stated by the source.

Legend:
[1] = 83 kPa, Liquid; for speed of sound: Frequency=3 MHz, Single path-length method; for mass density: Vibrating tube method
[2] = molar heat capacity at constant pressure; conditions: 83 kPa, Liquid, DSC

**Q.** Which results are given for `CCCCCCCCC(=O)OCC(COC(=O)CCCCCCCC)(COC(=O)CCCCCCCC)COC(=O)CCCCCCCC` [pentaerythritol tetranonanoate]?
**A.** speed of sound ([1]; 283.15 K): 1438.9 ± 7.2 m/s; mass density ([1]; 283.15 K): 961.49 ± 13 kg/m3; speed of sound ([1]; 288.15 K): 1421.7 ± 7.2 m/s; mass density ([1]; 288.15 K): 957.85 ± 13 kg/m3; speed of sound ([1]; 293.15 K): 1404.7 ± 7.2 m/s; mass density ([1]; 293.15 K): 954.2 ± 13 kg/m3; speed of sound ([1]; 298.15 K): 1387.9 ± 7.2 m/s; mass density ([1]; 298.15 K): 950.58 ± 13 kg/m3; speed of sound ([1]; 303.15 K): 1371.5 ± 7.2 m/s; mass density ([1]; 303.15 K): 946.97 ± 13 kg/m3; speed of sound ([1]; 308.15 K): 1355.2 ± 7.2 m/s; mass density ([1]; 308.15 K): 943.37 ± 13 kg/m3; speed of sound ([1]; 313.15 K): 1339.1 ± 7.2 m/s; mass density ([1]; 313.15 K): 939.77 ± 13 kg/m3; speed of sound ([1]; 318.15 K): 1323.2 ± 7.2 m/s; mass density ([1]; 318.15 K): 936.18 ± 12 kg/m3; speed of sound ([1]; 323.15 K): 1307.5 ± 7.2 m/s; mass density ([1]; 323.15 K): 932.6 ± 12 kg/m3; speed of sound ([1]; 328.15 K): 1292 ± 7.2 m/s; mass density ([1]; 328.15 K): 929.02 ± 12 kg/m3; speed of sound ([1]; 333.15 K): 1276.6 ± 7.2 m/s; mass density ([1]; 333.15 K): 925.45 ± 12 kg/m3; speed of sound ([1]; 338.15 K): 1261.4 ± 7.2 m/s; mass density ([1]; 338.15 K): 921.88 ± 12 kg/m3; speed of sound ([1]; 343.15 K): 1246.4 ± 7.2 m/s; mass density ([1]; 343.15 K): 918.32 ± 12 kg/m3; molar heat capacity at constant pressure ([2]; 313.13 K): 1352.3 ± 54 J/K/mol; molar heat capacity at constant pressure ([2]; 314.13 K): 1354.3 ± 54 J/K/mol; molar heat capacity at constant pressure ([2]; 315.14 K): 1355.7 ± 54 J/K/mol; molar heat capacity at constant pressure ([2]; 316.13 K): 1357.8 ± 54 J/K/mol; molar heat capacity at constant pressure ([2]; 317.14 K): 1359.9 ± 55 J/K/mol; molar heat capacity at constant pressure ([2]; 318.13 K): 1362 ± 54 J/K/mol; molar heat capacity at constant pressure ([2]; 319.13 K): 1363.4 ± 54 J/K/mol; molar heat capacity at constant pressure ([2]; 320.14 K): 1365.5 ± 55 J/K/mol; molar heat capacity at constant pressure ([2]; 321.13 K): 1367.6 ± 55 J/K/mol; molar heat capacity at constant pressure ([2]; 322.13 K): 1369 ± 55 J/K/mol; molar heat capacity at constant pressure ([2]; 323.14 K): 1371.1 ± 55 J/K/mol; molar heat capacity at constant pressure ([2]; 324.13 K): 1373.2 ± 55 J/K/mol; molar heat capacity at constant pressure ([2]; 325.13 K): 1374.6 ± 55 J/K/mol; molar heat capacity at constant pressure ([2]; 326.13 K): 1376.6 ± 56 J/K/mol; molar heat capacity at constant pressure ([2]; 327.13 K): 1378.7 ± 56 J/K/mol; molar heat capacity at constant pressure ([2]; 328.14 K): 1380.8 ± 55 J/K/mol; molar heat capacity at constant pressure ([2]; 329.14 K): 1382.9 ± 56 J/K/mol; molar heat capacity at constant pressure ([2]; 330.13 K): 1384.3 ± 55 J/K/mol; molar heat capacity at constant pressure ([2]; 331.13 K): 1386.4 ± 55 J/K/mol; molar heat capacity at constant pressure ([2]; 332.13 K): 1388.5 ± 56 J/K/mol; molar heat capacity at constant pressure ([2]; 333.13 K): 1390.6 ± 56 J/K/mol; molar heat capacity at constant pressure ([2]; 334.13 K): 1392.7 ± 56 J/K/mol; molar heat capacity at constant pressure ([2]; 335.13 K): 1394.8 ± 56 J/K/mol; molar heat capacity at constant pressure ([2]; 336.14 K): 1396.9 ± 56 J/K/mol; molar heat capacity at constant pressure ([2]; 337.13 K): 1399 ± 56 J/K/mol; molar heat capacity at constant pressure ([2]; 338.13 K): 1401 ± 56 J/K/mol; molar heat capacity at constant pressure ([2]; 339.13 K): 1403.1 ± 56 J/K/mol; molar heat capacity at constant pressure ([2]; 340.13 K): 1405.2 ± 56 J/K/mol; molar heat capacity at constant pressure ([2]; 341.14 K): 1406.6 ± 56 J/K/mol; molar heat capacity at constant pressure ([2]; 342.14 K): 1408.7 ± 56 J/K/mol; molar heat capacity at constant pressure ([2]; 343.13 K): 1410.8 ± 56 J/K/mol; molar heat capacity at constant pressure ([2]; 344.13 K): 1412.9 ± 56 J/K/mol; molar heat capacity at constant pressure ([2]; 345.14 K): 1415 ± 56 J/K/mol; molar heat capacity at constant pressure ([2]; 346.13 K): 1417.1 ± 56 J/K/mol; molar heat capacity at constant pressure ([2]; 347.13 K): 1419.2 ± 56 J/K/mol; molar heat capacity at constant pressure ([2]; 348.13 K): 1421.3 ± 56 J/K/mol; molar heat capacity at constant pressure ([2]; 349.13 K): 1423.4 ± 56 J/K/mol; molar heat capacity at constant pressure ([2]; 350.14 K): 1425.4 ± 56 J/K/mol; molar heat capacity at constant pressure ([2]; 351.13 K): 1427.5 ± 56 J/K/mol; molar heat capacity at constant pressure ([2]; 352.13 K): 1429.6 ± 56 J/K/mol; molar heat capacity at constant pressure ([2]; 353.14 K): 1431.7 ± 57 J/K/mol; molar heat capacity at constant pressure ([2]; 354.13 K): 1433.8 ± 57 J/K/mol; molar heat capacity at constant pressure ([2]; 355.14 K): 1435.9 ± 57 J/K/mol; molar heat capacity at constant pressure ([2]; 356.13 K): 1438 ± 57 J/K/mol; molar heat capacity at constant pressure ([2]; 357.13 K): 1440.1 ± 57 J/K/mol; molar heat capacity at constant pressure ([2]; 358.13 K): 1442.2 ± 57 J/K/mol; molar heat capacity at constant pressure ([2]; 359.13 K): 1444.3 ± 57 J/K/mol; molar heat capacity at constant pressure ([2]; 360.13 K): 1446.4 ± 57 J/K/mol; molar heat capacity at constant pressure ([2]; 361.13 K): 1448.4 ± 57 J/K/mol; molar heat capacity at constant pressure ([2]; 362.13 K): 1450.5 ± 57 J/K/mol; molar heat capacity at constant pressure ([2]; 363.13 K): 1452.6 ± 57 J/K/mol; molar heat capacity at constant pressure ([2]; 364.13 K): 1454.7 ± 58 J/K/mol; molar heat capacity at constant pressure ([2]; 365.13 K): 1456.8 ± 58 J/K/mol; molar heat capacity at constant pressure ([2]; 366.13 K): 1458.9 ± 58 J/K/mol; molar heat capacity at constant pressure ([2]; 367.13 K): 1461 ± 58 J/K/mol; molar heat capacity at constant pressure ([2]; 368.13 K): 1463.1 ± 58 J/K/mol; molar heat capacity at constant pressure ([2]; 369.13 K): 1465.2 ± 58 J/K/mol; molar heat capacity at constant pressure ([2]; 370.13 K): 1467.3 ± 58 J/K/mol; molar heat capacity at constant pressure ([2]; 371.13 K): 1469.4 ± 58 J/K/mol; molar heat capacity at constant pressure ([2]; 372.13 K): 1471.4 ± 58 J/K/mol; molar heat capacity at constant pressure ([2]; 373.13 K): 1473.5 ± 58 J/K/mol; molar heat capacity at constant pressure ([2]; 374.14 K): 1475.6 ± 59 J/K/mol; molar heat capacity at constant pressure ([2]; 375.14 K): 1477.7 ± 59 J/K/mol; molar heat capacity at constant pressure ([2]; 376.13 K): 1479.8 ± 59 J/K/mol; molar heat capacity at constant pressure ([2]; 377.13 K): 1481.9 ± 59 J/K/mol; molar heat capacity at constant pressure ([2]; 378.13 K): 1484 ± 59 J/K/mol; molar heat capacity at constant pressure ([2]; 379.13 K): 1486.1 ± 59 J/K/mol; molar heat capacity at constant pressure ([2]; 380.14 K): 1488.2 ± 59 J/K/mol; molar heat capacity at constant pressure ([2]; 381.13 K): 1491 ± 59 J/K/mol; molar heat capacity at constant pressure ([2]; 382.13 K): 1493.1 ± 59 J/K/mol; molar heat capacity at constant pressure ([2]; 383.13 K): 1495.1 ± 59 J/K/mol; molar heat capacity at constant pressure ([2]; 384.13 K): 1497.2 ± 59 J/K/mol; molar heat capacity at constant pressure ([2]; 385.13 K): 1499.3 ± 59 J/K/mol; molar heat capacity at constant pressure ([2]; 386.13 K): 1501.4 ± 59 J/K/mol; molar heat capacity at constant pressure ([2]; 387.13 K): 1503.5 ± 59 J/K/mol; molar heat capacity at constant pressure ([2]; 388.13 K): 1505.6 ± 59 J/K/mol; molar heat capacity at constant pressure ([2]; 389.13 K): 1507.7 ± 59 J/K/mol; molar heat capacity at constant pressure ([2]; 390.13 K): 1509.8 ± 59 J/K/mol; molar heat capacity at constant pressure ([2]; 391.13 K): 1511.9 ± 59 J/K/mol; molar heat capacity at constant pressure ([2]; 392.13 K): 1514 ± 59 J/K/mol; molar heat capacity at constant pressure ([2]; 393.13 K): 1516.1 ± 59 J/K/mol; molar heat capacity at constant pressure ([2]; 394.13 K): 1518.1 ± 59 J/K/mol; molar heat capacity at constant pressure ([2]; 395.14 K): 1520.2 ± 60 J/K/mol; molar heat capacity at constant pressure ([2]; 396.13 K): 1523 ± 60 J/K/mol; molar heat capacity at constant pressure ([2]; 397.13 K): 1525.1 ± 60 J/K/mol; molar heat capacity at constant pressure ([2]; 398.13 K): 1527.2 ± 60 J/K/mol; molar heat capacity at constant pressure ([2]; 399.13 K): 1529.3 ± 60 J/K/mol; molar heat capacity at constant pressure ([2]; 400.13 K): 1531.4 ± 60 J/K/mol; molar heat capacity at constant pressure ([2]; 401.13 K): 1533.5 ± 60 J/K/mol; molar heat capacity at constant pressure ([2]; 402.14 K): 1535.6 ± 60 J/K/mol; molar heat capacity at constant pressure ([2]; 403.13 K): 1537.7 ± 60 J/K/mol; molar heat capacity at constant pressure ([2]; 404.14 K): 1539.8 ± 60 J/K/mol; molar heat capacity at constant pressure ([2]; 405.13 K): 1541.8 ± 60 J/K/mol; molar heat capacity at constant pressure ([2]; 406.13 K): 1543.9 ± 60 J/K/mol; molar heat capacity at constant pressure ([2]; 407.13 K): 1546 ± 60 J/K/mol; molar heat capacity at constant pressure ([2]; 408.13 K): 1548.1 ± 60 J/K/mol; molar heat capacity at constant pressure ([2]; 409.13 K): 1550.9 ± 61 J/K/mol; molar heat capacity at constant pressure ([2]; 410.14 K): 1553 ± 61 J/K/mol; molar heat capacity at constant pressure ([2]; 411.13 K): 1554.4 ± 61 J/K/mol; molar heat capacity at constant pressure ([2]; 412.14 K): 1557.2 ± 61 J/K/mol
